Experimental data from paper PMC10439230 (Scientific Reports, 2023).

Tests used:
[1] = tested on: MOLT-3 (T cell acute lymphoblastic leukemia); assay: Cytotoxic activity assay (XTT); assay type: cell-based, human; details: for IC50: Homo sapiens, MOLT-3, 48 h exposure, XTT, read-out: Cell lines, IC50 (μM) MOLT-3; for Selectivity Index (SI) values MOLT-3: SI = IC50 normal cell (MRC-5)/ IC50 cancer cell
Description: (§1) The synthetic compounds were screened for their cytotoxic activity using standard MTT or XTT methods[30] against a panel of nine human cancer cell lines and one normal cell line, including MDA-MB-231 (triple-negative breast cancer), T-47D (hormone-dependent breast cancer), HepG2 (hepatocellular carcinoma), A549 (lung adenocarcinoma), H69AR (multidrug-resistant small cell lung carcinoma), HuCCA-1 (cholangiocarcinoma derived from a patient), HeLa (cervical carcinoma), and two leukemia cell lines, HL-60 (acute promyelocytic leukemia) and MOLT-3 (T cell acute lymphoblastic leukemia). MRC-5 normal embryonic lung fibroblast cell line was used to represent normal cells. Chemotherapeutic drugs, doxorubicin and etoposide, were used as positive controls.
(§2) The cells were seeded into 96-well plates (100 µL for adherent cells and 75 µL for suspended cells) at a density of 5000–20,000 cells per well, depending on their growth rates. Adherent and suspended cells were then allowed to grow at 37 °C with 95% humidity and 5% CO2 for 24 h and 30 min, respectively. The cytotoxicity assay was initiated by adding an equal volume of cell culture medium containing tested compound at predetermined concentrations. Following 48 h of exposure, cell viability was determined using MTT assay for adherent cells[51],[52]or XTT assay for suspeended cells. Briefly, for adherent cells, 100 µL of the MTT reagent was added to each well, and the microtiter plates were further incubated for 2.5–4 h. The medium was subsequently replaced with 100 µL of DMSO to dissolve the purple formazan before the absorbance at 550 nm was measured using a microplate reader (a SpectraMax Plus 384) with a reference wavelength of 650 nm. For suspended cells, 75 µL of the XTT reagent was added to each well, and the cells were further incubated for 4 h. Afterwards, the absorbance of orange formazan at 492 nm was measured with a reference wavelength of 690 nm using a microplate reader.

[2] = tested on: HL-60 (acute promyelocytic leukemia); assay: Cytotoxic activity assay (XTT); assay type: cell-based, human; details: for IC50: Homo sapiens, HL-60, 48 h exposure, XTT, read-out: Cell lines, IC50 (μM) HL-60; for Selectivity Index (SI) values HL-60: SI = IC50 normal cell (MRC-5)/ IC50 cancer cell
Description: as §1, §2

[3] = tested on: MRC-5 normal embryonic lung fibroblast cell line; assay: Cytotoxic activity assay (MTT), normal cells; assay type: cell-based; details: Homo sapiens, MRC5, 48 h exposure, read-out: Cell lines, IC50 (μM) MRC-5
Description: as §1, §2

[4] = tested on: HeLa (cervical carcinoma); assay: Cytotoxic activity assay (MTT); assay type: cell-based, human; details: for IC50: Homo sapiens, 48 h exposure, MTT, read-out: Cell lines, IC50 (μM) HeLa; for Selectivity Index (SI) values HeLa: SI = IC50 normal cell (MRC-5)/ IC50 cancer cell
Description: as §1, §2

[5] = tested on: T-47D (hormone-dependent breast cancer); assay: Cytotoxic activity assay (MTT); assay type: cell-based, human; details: for IC50: Homo sapiens, T47D, 48 h exposure, MTT, read-out: Cell lines, IC50 (μM) T47-D; for Selectivity Index (SI) values T47-D: SI = IC50 normal cell (MRC-5)/ IC50 cancer cell
Description: as §1, §2

[6] = tested on: A549 (lung adenocarcinoma); assay: Cytotoxic activity assay (MTT); assay type: cell-based, human; details: for IC50: Homo sapiens, A549, 48 h exposure, MTT, read-out: Cell lines, IC50 (μM) A549; for Selectivity Index (SI) values A549: SI = IC50 normal cell (MRC-5)/ IC50 cancer cell
Description: as §1, §2

[7] = tested on: MDA-MB-231 (triple-negative breast cancer); assay: Cytotoxic activity assay (MTT); assay type: cell-based, human; details: for IC50: Homo sapiens, MDA-MB-231, 48 h exposure, MTT, read-out: Cell lines, IC50 (μM) MDA-MB-231; for Selectivity Index (SI) values MDA-MB-231: SI = IC50 normal cell (MRC-5)/ IC50 cancer cell
Description: as §1, §2

[8] = tested on: HepG2 (hepatocellular carcinoma); assay: Cytotoxic activity assay (MTT); assay type: cell-based, human; details: for IC50: Homo sapiens, HepG2, 48 h exposure, MTT, read-out: Cell lines, IC50 (μM) HepG2; for Selectivity Index (SI) values HepG2: SI = IC50 normal cell (MRC-5)/ IC50 cancer cell
Description: as §1, §2

[9] = tested on: H69AR (multidrug-resistant small cell lung carcinoma); assay: Cytotoxic activity assay (MTT); assay type: cell-based, human; details: for IC50: Homo sapiens, H69AR, 48 h exposure, MTT, read-out: Cell lines, IC50 (μM) H69AR; for Selectivity Index (SI) values H69AR: SI = IC50 normal cell (MRC-5)/ IC50 cancer cell
Description: as §1, §2

[10] = tested on: HuCCA-1 (cholangiocarcinoma derived from a patient); assay: Cytotoxic activity assay (MTT); assay type: cell-based, human; details: for IC50: Homo sapiens, HuCC-A1, 48 h exposure, MTT, read-out: Cell lines, IC50 (μM) HuCCA-1; for Selectivity Index (SI) values HuCCA-1: SI = IC50 normal cell (MRC-5)/ IC50 cancer cell
Description: as §1, §2

Structure (SMILES)	IC50 [1]	Selectivity Index (SI) values MOLT-3 [1]	IC50 [2]	Selectivity Index (SI) values HL-60 [2]	IC50 [3]	IC50 [4]	Selectivity Index (SI) values HeLa [4]	IC50 [5]	Selectivity Index (SI) values T47-D [5]	IC50 [6]	Selectivity Index (SI) values A549 [6]	IC50 [7]	Selectivity Index (SI) values MDA-MB-231 [7]	IC50 [8]	Selectivity Index (SI) values HepG2 [8]	IC50 [9]	Selectivity Index (SI) values H69AR [9]	IC50 [10]	Selectivity Index (SI) values HuCCA-1 [10]
C=C1CC[C@H]2C(C)(C)CCC[C@]2(C)[C@H]1CC/C(C)=C/C(=O)N(C)O [Compound 4p, (E)-N-Hydroxy-N,3-dimethyl-5-((1S,4aS,8aS)-5,5,8a-trimethyl-2-methylenedecahydronaphthalen-1-yl)pent-2-enamide]	3.72 ± 0.26 µM	18.8	6.81 ± 1.99 µM	10.2	69.8 ± 1.24 µM	33.6 ± 0.54 µM	2.1	35.7 ± 1.01 µM	2.0	61.4 ± 2.16 µM	1.1	24.5 ± 0.61 µM	2.8	64.6 ± 0.76 µM	1.1	96.67 ± 0.08 µM	0.7	58.6 ± 1.2 µM	1.2
C=C1CCC2C(C)(C)CCCC2(C)C1CCC(C)=CC(=O)O (stereo not drawn) [Compound 1, anticopalic acid]	66.02 ± 0.12 µM	2.5	103 ± 10.7 µM	1.6	> 120 µM	145.2 ± 0.31 µM	1.1	> 120 µM	1.0	159.1 ± 0.78 µM	1.0	> 120 µM	1.0	> 120 µM	1.0	> 120 µM	1.0	157.1 ± 0.51 µM	1.0
C=C1CC[C@H]2C(C)(C)CCC[C@]2(C)[C@H]1CC/C(C)=C/C(=O)NC [Compound 4a, (E)-N,3-Dimethyl-5-((1S,4aS,8aS)-5,5,8a-trimethyl-2-methylenedecahydro-naphthalen-1-yl)pent-2-enamide]	25.5 ± 0.7 µM	2.2	24.7 ± 1.41 µM	2.3	55.9 ± 0.19 µM	47.7 ± 1.08 µM	1.2	73.4 ± 2.06 µM	0.8	65.1 ± 3.57 µM	0.9	29.9 ± 0.71 µM	1.9	73.4 ± 2.06 µM	0.8	122 ± 3.48 µM	0.5	62.9 ± 1.36 µM	0.9
C=C1CCC2C(C)(C)CCCC2(C)C1CCC(C)=CC(=O)NCC(=O)OCC [Compound 4r, Ethyl ((E)-3-methyl-5-((1S,4aS,8aS)-5,5,8a-trimethyl-2-methylenedec-ahydronaphthalen-1-yl)pent-2-enoyl)glycinate]	11.5 ± 1.13 µM	5.6	23.9 ± 0.59 µM	2.7	63.9 ± 0.65 µM	36.6 ± 1.44 µM	1.7	87.2 ± 6.02 µM	0.7	67.3 ± 2.09 µM	0.9	23.4 ± 0.81 µM	2.7	61.3 ± 1.12 µM	1.0	45.9 ± 1.8 µM	1.4	72.3 ± 1.93 µM	0.9
COc1cccc2c1C(=O)c1c(O)c3c(c(O)c1C2=O)C[C@@](O)(C(=O)CO)C[C@@H]3O[C@H]1C[C@H](N)[C@H](O)[C@H](C)O1 [DOX, doxorubicin, reference compound]					0.76 ± 0.05 µM	0.48 ± 0.01 µM	1.6	0.47 ± 0.03 µM	1.6	0.38 ± 0.03 µM	2.0	2.7 ± 0.16 µM	0.3	0.4 ± 0.02 µM	1.9	38.08 ± 0.29 µM		0.78 ± 0.06 µM	1.0
